From ChEMBL document CHEMBL4118089, “Pyrazine Analogs for the Treatment of Protozoal Infections” (ACS Med Chem Lett, 2017)

Key:
[1] = test system: Plasmodium falciparum; experiment: Antiplasmodial activity against Plasmodium falciparum infected in mouse; assay type: functional
[2] = test system: Plasmodium falciparum; experiment: Antiplasmodial activity against Plasmodium falciparum; assay type: functional, organism-based

| IC50 [2] | SMILES | ED90 [1] |
| --- | --- | --- |
| 35 nM | Cc1cncc(-c2cncc(-c3ccc(C(=O)N4CCNCC4)cc3)n2)c1 | 2.2 mg/kg |
| 25 nM | O=C(c1ccc(-c2cncc(-c3cncc(F)c3)n2)cc1)N1CCNCC1 | 1.5 mg/kg |
